{"source": "patent US20180339066A1", "about": "“Methods and Compositions for Enhancing Transduction Efficiency of Retroviral Vectors” (The Scripps Research Institute, priority 2013, published 2018)", "key": {"[1]": {"system": "human cord blood CD34+ cells", "test": "HIV-1 based lentiviral vector transduction of cord blood CD34+ cells, GFP by flow cytometry", "format": "cell-based", "conditions": "for transduction efficiency: added with vector or delayed by 2 or 6 hours"}, "[2]": {"system": "stimulated cord blood CD34+ cells", "test": "Quantification of HIV-1 reverse transcription products by qPCR", "conditions": "MOI=25, 20 μg/ml rapamycin", "method": "Quantification of HIV-1 reverse transcription products. Stimulated cord blood CD34^+ cells (2-3E5) were transduced with an MOI of 25 in the presence of 20 μg/ml rapamycin or DMSO, and harvested at 6, 12, or 24 hours after the start of transduction by freezing cell pellets at −80° C. Total DNA was extracted using the QiaAmp DNA mini kit, and treated with Dpnl for 2-4 hours to eliminate plasmid DNA. Quantitative PCR was carried out on the Roche LightCycler 480 using previously published primer and probe sequences (Prasad et al., HIV Protocols: Second Edition 485, 2009)."}, "NSG-repopulating cells": {"system": "NSG-repopulating cells", "test": "NSG mouse reconstitution with transduced cord blood CD34+ cells (long-term engraftment)", "format": "in vivo, human", "description": "(§1) Colony forming assay, NSG mouse reconstitution, and serial transplantation. For colony forming assays, transduced cord blood CD34^+ HSPCs were counted and 100 cells were seeded in 1.5 ml methocult4434 (StemCell Technologies) in 30 mm dishes in triplicate. Total BFU-E, CFU-GM, CFU-M, and CFU-GEMM colonies, as well as GFP+ colonies, were counted 16-18 days after plating using a fluorescent microscope. […] Mice were bled every 4 weeks starting from 8 weeks post injection, and sacrificed at 19 weeks to assess engraftment and GFP expression in the bone marrow, spleen, and thymus by flow cytometry. For serial transplantation, primary recipients were sacrificed at 12 weeks post injection, and bone marrow cells from both femurs of one mouse were injected into two irradiated secondary recipients, which were again sacrificed at 12 weeks post injection for flow cytometric analysis of bone marrow and spleen. NSG mice were maintained at the Scripps Research Institute Molecular and Experimental Medicine animal facility.\nTo determine whether primitive HSCs in the heterogeneous CD34^+ population are transduced in the presence of rapamycin, we tested the ability of transduced cord blood CD34^+ cells to engraft irradiated NSG mice. A fraction of transduced cells was assessed in parallel liquid culture and colony forming assays. […] Mice were sacrificed 19 weeks after injection to assess long-term engraftment. […] This four-fold transduction enhancement in NSG-repopulating cells was more pronounced than in parallel liquid culture or CFU assay (FIG. 2C), indicating preferential transduction of primitive HSCs in the presence of rapamycin."}, "p21 mRNA": {"system": "p21 mRNA", "test": "p21 mRNA quantification by RT-PCR", "conditions": "cord blood CD34+ cells, 20 μg/ml rapamycin, 6 hours"}, "[3]": {"system": "human cord blood CD34+ cells", "test": "Integrase-defective lentiviral vector (IDLV) transduction of cord blood CD34+ cells", "conditions": "MOI=50, two days after transduction", "method": "Human cord blood CD34^+ cells were stimulated for 24 h and transduced with IDLVs, MOI=50, with or without 10 ng/μl rapamycin. GFP expression was assayed by flow cytometry every three days from 2-14 days post transduction. Data represent mean and standard deviation of independent transductions of two separate donors.\nCord blood CD34^+ cells were transduced with IDLVs in the absence or presence of rapamycin, and GFP expression was followed from 2-14 days post transduction."}, "cord blood CD34+ cells": {"system": "cord blood CD34+ cells", "test": "Colony forming assay and parallel liquid culture of transduced cord blood CD34+ cells", "format": "cell-based, human", "conditions": "stimulated cord blood CD34+ cells, MOI=25", "description": "as §1\nTo determine whether primitive HSCs in the heterogeneous CD34^+ population are transduced in the presence of rapamycin, we tested the ability of transduced cord blood CD34^+ cells to engraft irradiated NSG mice. A fraction of transduced cells was assessed in parallel liquid culture and colony forming assays. […]"}, "[4]": {"system": "primitive HSCs (serial repopulating cells)", "test": "Serial NSG mouse transplantation of transduced cord blood CD34+ cells", "format": "in vivo, human", "description": "as §1\nTo stringently establish transduced cells as primitive HSCs, we carried out serial NSG mouse transplantation with cord blood CD34^+ cells transduced with or without rapamycin. […] Bone marrow cells of secondary recipients were again analyzed 12 weeks post injection."}, "[5]": {"conditions": "NSG mice, 19 weeks after injection"}}, "data": [{"smiles": "CCC(=O)N1CCN(c2ccc(-n3c(=O)ccc4cnc5ccc(-c6cnc7ccccc7c6)cc5c43)cc2C(F)(F)F)CC1", "note": "[Torin 1]", "values": [{"measurement": "in vitro transduction efficiency relative to DMSO control", "setting": "[1]; 5 μM", "value": "enhanced"}, {"measurement": "transduction enhancement compared with rapamycin", "setting": "[1]; 5 μM", "value": "comparable"}]}, {"smiles": "CO/C1=C\\C(C)=C\\[C@@H](C)[C@@H](O)[C@@H](C)C/C(C)=C/C=C/[C@H](OC)[C@@H]([C@@H](C)[C@@H](O)[C@H](C)[C@@]2(O)C[C@@H](O)[C@H](C)[C@@H](C(C)C)O2)OC1=O", "note": "[bafilomycin Al]", "values": [{"measurement": "transduction efficiency", "setting": "[1]", "value": "decreased"}]}, {"smiles": "CCN(CC)CCCC(C)Nc1ccnc2cc(Cl)ccc12", "note": "(stereo not shown) [chloroquine]", "values": [{"measurement": "transduction efficiency", "setting": "[1]", "value": "decreased"}]}, {"smiles": "Cn1cnc(N)c2ncnc1-2", "note": "[3-methyadenine, 3-methyladenine]", "values": [{"measurement": "GFP expression", "setting": "[1]; autophagosome formation inhibited during transduction", "value": "decreased"}]}, {"smiles": "CO[C@H]1C[C@@H]2CC[C@@H](C)[C@@](O)(O2)C(=O)C(=O)N2CCCC[C@H]2C(=O)O[C@H]([C@H](C)C[C@@H]2CC[C@@H](O)[C@H](OC)C2)CC(=O)[C@H](C)/C=C(\\C)[C@@H](O)[C@@H](OC)C(=O)[C@H](C)C[C@H](C)/C=C/C=C/C=C/1C", "note": "[rapamycin]", "values": [{"measurement": "increase in per cell amount of 2-LTR circles", "setting": "[2]", "value": "2-to-3 fold"}, {"measurement": "increase in per cell amount of viral full-length DNA", "setting": "[2]", "value": "2-to-3 fold"}, {"measurement": "GFP positivity in human CD45+ cells in mouse bone marrow", "setting": "NSG-repopulating cells; 20 μg/ml rapamycin during transduction, 19 weeks, control 20%", "value": 80, "unit": "%"}, {"measurement": "long-term engraftment ability of CD34+ cells", "setting": "NSG-repopulating cells; [5]", "value": "did not impair"}, {"measurement": "reconstitution levels in bone marrow vs control", "setting": "NSG-repopulating cells; [5]", "value": "not statistically different"}, {"measurement": "up-regulation in p21 mRNA", "setting": "p21 mRNA", "value": "3-5 fold"}, {"measurement": "increase in percentage of GFP expressing cells", "setting": "[3]", "value": 17, "unit": "%"}, {"measurement": "efficiency or proportion of colony formation", "setting": "cord blood CD34+ cells", "value": "did not significantly affect"}, {"measurement": "gene marking frequency relative to other known methods of treatment", "setting": "[4]; human hematopoietic stem cells", "value": "4-5 fold"}, {"measurement": "EGFP-marked human cell populations in secondary recipients", "setting": "[4]; secondary mouse recipients", "value": "> 90", "unit": "%"}, {"measurement": "GFP positivity (percentage of GFP-expressing cells)", "setting": "[1]; pre-stimulated cord blood CD34+ cells, rapamycin present during transduction, 11-14 days in culture, control 40%", "value": 80, "unit": "%"}]}]}
